# Experimental data from patent US6737038B1, “Use of small molecule radioligands to discover inhibitors of amyloid-beta peptide production and for diagnostic imaging” (Bristol-Myers Squibb Company, priority 1998, dated 2004).
# Key:
# [1] = test system: HEK293 cells expressing APP 695 wt; assay: Aβ production in HEK293 cells expressing APP 695 wt, compared with I-7T binding to membranes of the same cell line; format: cell-based
# Description: The concentration of Compound (I-7) leading to half-maximal inhibition (IC50) of proteolytic activity leading to Aβ production in HEK293 cells expressing APP 695 wt is similar to the concentration leading to half-maximal inhibition (IC50) of Compound (I-7T) binding to membranes derived from the same cell line. […] Also using a compound of Formula (I), we have discovered a macromolecule containing a binding site of action for compounds of Formula (I) critical to the processing of APP and the production of Aβ.
# bind specifically to a binding site on a macromolecule or a complex of macromolecules involved in APP processing to produce reduction of Aβ peptide production. For example, the concentration of Compound (I-7) leading to half-maximal inhibition (IC50) of Aβ production in HEK293 cells expressing APP 695 wt is similar to the concentration leading to half-maximal inhibition (IC50) of Compound (I-7T) binding to membranes derived from the same cell line.
# [2] = test system: membrane binding site of Example 7; assay: Radioligand Competition Binding Assay (RCB Assay)
# presenilin 1 = target: T1, presenilin 1 (Homo sapiens, UniProt P49768); assay: immunoprecipitation of cross-linked polypeptides with antibodies to presenilin 1; format: binding; details: THP-1 membranes, Example 43T 30 nM plus competing compound
# T1 construct: endogenous in cells; host or cells: THP-1 cell membranes
# Protocol: The membranes were collected by centrifugation. The membranes were extracted with 50 mM Tris, pH 7.5 containing 100 mM KCl, 2 mM EDTA, 2% CHAPS and 1 complete protease inhibitor tablet per 25 ml buffer (COMPLETE™, Boehringer Mannheim; product number 1697 498)) for 1 hour at 4° C. The detergent soluble fraction was recovered by centrifugation (40,000 g, 30 min, 4° C.). The membrane extract was diluted one half with water. 500 ul of the membrane extract were pre-incubated with 10 ul of normal mouse IgG and 50 ul anti-mouse IgG Sepharose (Sigma) for 1 hour at 4° C. The supernatant was recovered by centrifugation. Subsequently, 10 ug of preimmune IgG (Sigma) or 10 ug of a monoclonal antibody to presenilin 1 was added in the presence of 50 ul anti-mouse IgG Sepharose. Examples of commercially available antibodies to presenilin 1 are Chemicon International: rat anti-human Presenilin 1 monoclonal antibody; product number MAB 1563; or Santa Cruz Biotechnology: goat anti Presenilin 1; product number SC-1244; or Santa Cruz Biotechnology: goat anti Presenilin 1; product number SC-1245. […] Radioactivity bound to the Sepharose beads was dissociated by boiling in SDS sample buffer (4×) containing 50 mM dithiothreitol. […]
Compound,IC50 of Aβ production compared with IC50 of Compound (I-7T) binding to membranes from the same cell line [1],apparent Ki: RCB Assay conducted with Example 7T versus Example 11T [2],also measured
"CCC[C@H](C(N)=O)[C@@H](CC(C)C)C(=O)N[C@H]1CCCCN(Cc2cccc(Oc3ccccc3)c2)C1=O [Example 7, (2R,3S) N1-[(3S)-Hexahydro-1-(3-phenoxybenzyl)-2-oxo-1H-azepin-3-yl]-2-(2-methylpropyl)-3-(propyl)-butanediamide]",similar,statistically significant correlation,
CCC[C@H](C(N)=O)[C@@H](CC(C)C)C(=O)N[C@H]1CCCCN(Cc2cccc(C(=O)c3ccccc3)c2)C1=O [Example 11],,statistically significant correlation,"IC50 in β APPA Assay versus RCB Assay with Example 7T as radiolabeled standard [2]: statistically significant correlation of IC50 values; cross-linking to the membrane binding site ([2]; THP-1 membranes, photolysis at 365 nm): cross-linked to the membrane binding site of Example 7"
"CC(NC(=O)Cc1cc(F)cc(F)c1)C(=O)NC1N=C(c2ccccc2)c2ccccc2N(C)C1=O (stereo not shown) [Example 98, reference compound]",,statistically significant correlation,competition of cross-linking / immunoprecipitation of labeled bands (FIG. 2) (presenilin 1): not in the presence of Example 98
CC(C)C[C@H](CC(N)=O)C(=O)N[C@H]1CCCCN(Cc2cccc(Oc3ccccc3)c2)C1=O [Example 99],,statistically significant correlation,
"Tritiated (2S,3R) N1-[1,3-Dihydro-1-methyl-2-oxo-5-(phenyl)-2H-1,4-benzodiazepin-3-yl]-2-(2-methylpropyl)-3-(n-propyl)-butanediamide [Example 43T]",correlation holds,,equivalency to Example 7T as radioactive tracer in the RCB Assay [2]: can be used instead of Example 7T
